Source: ChEMBL document CHEMBL1155592, “New antibacterial metabolites from the cyanobacterium Nostoc commune(EAWAG 122b)” (2000)
Values after ≈ are worked out from the molar mass of the structure shown.

Key:
Bacillus cereus = test: Antibacterial activity against Bacillus cereus ATCC 10702; format: functional
[1] = system: Staphylococcus epidermidis; test: Antibacterial activity against Staphylococcus epidermidis ATCC 12228; format: functional

MIC (Bacillus cereus) [µg/mL] | MIC [1] [µg/mL] | SMILES
32 (≈ 126 µM) | 32 (≈ 126 µM) | Cc1ccc(O)c2c1C(=O)c1cccc(O)c1C2=O
128 (≈ 291 µM) | 4 (≈ 9.08 µM) | C[C@@H]1C[C@H](O)C2=C3[C@@H](C[C@@H]4C(C)(C)[C@H](O)CC[C@@]24C)Oc2ccc(C(=O)O)cc2C[C@@]31C
64 (≈ 395 µM) | 128 (≈ 789 µM) | Cc1ccc(O)c2c1C(=O)CC2
8 (≈ 24.8 µM) | 4 (≈ 12.4 µM) | O=C(N[C@H](CO)[C@H](O)c1ccc([N+](=O)[O-])cc1)C(Cl)Cl [CHLORAMPHENICOL]
